Assay results from PubChem BioAssay AID330 (DTP/NCI, 2004).
Values joined by “and” are separate entries in the source; they are usually repeats but may differ in a detail not shown here. Identical values can stand only once. Toxic doses and inconclusive results are not listed.

Test system: P388 leukemia ip, CD2F1 mice, survival T/C
Assay: NCI In Vivo Anticancer Drug Screen. Data for tumor model P388 Leukemia (intraperitoneal) in CD2F1 (CDF1) mice
Conditions: endpoint: median survival time, higher = longer survival
Outline: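 Mice carrying the transplanted tumor received test compound or vehicle. Survival was recorded in each group, and the value is the treated-group measurement divided by that of the vehicle-treated control group.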

[1] = dose: 50.0 mg/kg/injection, schedule: Q01DX005 (ip), vehicle: Klucel (hydroxypropylcellulose) (HPC)
[2] = dose: 100.0 mg/kg/injection, schedule: Q01DX005 (ip), vehicle: Klucel (hydroxypropylcellulose) (HPC)
[3] = dose: 200.0 mg/kg/injection, schedule: Q01DX005 (ip), vehicle: Klucel (hydroxypropylcellulose) (HPC)
[4] = dose: 60.0 mg/kg/injection, schedule: Q01DX005 (ip), vehicle: saline
[5] = dose: 120.0 mg/kg/injection, schedule: Q01DX005 (ip), vehicle: saline
[6] = dose: 50.0 mg/kg/injection, schedule: Q01DX005 (ip), vehicle: saline with Tween-80
[7] = dose: 100.0 mg/kg/injection, schedule: Q01DX005 (ip), vehicle: saline with Tween-80
[8] = dose: 200.0 mg/kg/injection, schedule: Q01DX005 (ip), vehicle: saline with Tween-80
[9] = dose: 50.0 mg/kg/injection, schedule: Q01DX009 (ip), vehicle: saline
[10] = dose: 50.0 mg/kg/injection, schedule: Q01DX009 (ip), vehicle: suspension in saline
[11] = dose: 100.0 mg/kg/injection, schedule: Q01DX009 (ip), vehicle: suspension in saline
[12] = dose: 200.0 mg/kg/injection, schedule: Q01DX009 (ip), vehicle: suspension in saline
[13] = dose: 60.0 mg/kg/injection, schedule: Q01DX005 (ip), vehicle: Klucel (hydroxypropylcellulose) (HPC)
[14] = dose: 120.0 mg/kg/injection, schedule: Q01DX005 (ip), vehicle: Klucel (hydroxypropylcellulose) (HPC)
[15] = dose: 240.0 mg/kg/injection, schedule: Q01DX005 (ip), vehicle: Klucel (hydroxypropylcellulose) (HPC)
[16] = dose: 100.0 mg/kg/injection, schedule: Q04DX003 (ip), vehicle: saline with Tween-80
[17] = dose: 200.0 mg/kg/injection, schedule: Q04DX003 (ip), vehicle: saline with Tween-80
[18] = dose: 400.0 mg/kg/injection, schedule: Q04DX003 (ip), vehicle: saline with Tween-80

In the case of `COc1cc2c(c(OC)c1OC)-c1ccc(NCc3ccccc3)c(=O)cc1[C@@H](NC(C)=O)CC2`, the T/C (dose: 0.78 mg/kg/injection, schedule: Q01DX009 (ip), vehicle: Klucel (hydroxypropylcellulose) (HPC)) is reported as 103 % of control and 104 % of control and 105 % of control, the T/C (dose: 1.56 mg/kg/injection, schedule: Q01DX009 (ip), vehicle: Klucel (hydroxypropylcellulose) (HPC)) is reported as 98 % of control and 101 % of control and 104 % of control and the T/C (dose: 3.12 mg/kg/injection, schedule: Q01DX009 (ip), vehicle: Klucel (hydroxypropylcellulose) (HPC)) is reported as 105 % of control and 106 % of control and 117 % of control. The T/C (dose: 6.25 mg/kg/injection, schedule: Q01DX009 (ip), vehicle: Klucel (hydroxypropylcellulose) (HPC)) was 117 % of control and the T/C (dose: 12.5 mg/kg/injection, schedule: Q01DX009 (ip), vehicle: Klucel (hydroxypropylcellulose) (HPC)) was 98 % of control and 117 % of control.
In the case of `COC(=O)/C=C1\SC(OC)(N(C)c2ccccc2)N(C)C1=O` (stereo not given), the T/C (dose: 60.0 mg/kg/injection, schedule: Q01DX005 (ip), vehicle: saline with Tween-80) is reported as 90 % of control, the T/C (dose: 120.0 mg/kg/injection, schedule: Q01DX005 (ip), vehicle: saline with Tween-80) is reported as 98 % of control and the T/C (dose: 240.0 mg/kg/injection, schedule: Q01DX005 (ip), vehicle: saline with Tween-80) is reported as 91 % of control.
`O=C(c1ccccc1[N+](=O)[O-])C1OC1c1ccccc1` (stereo not given) was tested, and the T/C [1] was 102 % of control, the T/C [2] was 99 % of control and the T/C [3] was 96 % of control.
`CC(C)Cc1cc(-c2cc(CC(C)C)nc(N)n2)nc(N)n1` was tested, and the T/C [4] was 100 % of control and the T/C [5] was 90 % of control.
In the case of `CC(Cc1cccc2ccccc12)C(N)=O` (stereo not given), the T/C [1] is reported as 100 % of control, the T/C [2] is reported as 99 % of control and the T/C [3] is reported as 99 % of control.
`Nc1ccc2nc3ccccc3c(NCCCCCCCCNc3c4ccccc4nc4ccc(N)cc34)c2c1` was tested, and the T/C (dose: 2.5 mg/kg/injection, schedule: Q01DX009 (ip), vehicle: water) was 160 % of control and the T/C (dose: 5.0 mg/kg/injection, schedule: Q01DX009 (ip), vehicle: water) was 160 % of control.
`COc1ccc(/C=N/N2C(=O)c3ccccc3C2=O)cc1` was tested, and the T/C [1] was 105 % of control, the T/C [2] was 93 % of control and the T/C [3] was 100 % of control.
`CC1(C)OC(CC(=O)O)C23COC(C(=O)C4(C)C2CCC2(C)C(c5ccoc5)OC(=O)C5OC524)C13` (stereo not given) was tested, and the T/C (dose: 0.75 mg/kg/injection, schedule: Q01DX009 (ip), vehicle: saline + alcohol) was 106 % of control, the T/C (dose: 1.5 mg/kg/injection, schedule: Q01DX009 (ip), vehicle: saline + alcohol) was 99 % of control and the T/C (dose: 3.0 mg/kg/injection, schedule: Q01DX009 (ip), vehicle: saline + alcohol) was 101 % of control. For the same molecule, the T/C (dose: 6.0 mg/kg/injection, schedule: Q01DX009 (ip), vehicle: saline + alcohol) was 101 % of control.
In the case of `C/C(=N\NC(=S)N1CCC(C)CC1)c1nccnc1C`, the T/C (dose: 6.0 mg/kg/injection, schedule: Q01DX005 (ip), vehicle: Klucel (hydroxypropylcellulose) (HPC)) is reported as 108 % of control, the T/C (dose: 12.0 mg/kg/injection, schedule: Q01DX005 (ip), vehicle: Klucel (hydroxypropylcellulose) (HPC)) is reported as 106 % of control and the T/C (dose: 25.0 mg/kg/injection, schedule: Q01DX005 (ip), vehicle: Klucel (hydroxypropylcellulose) (HPC)) is reported as 106 % of control.
`COC(=O)c1cccc(OCC(=O)Nc2ccccc2)c1` was tested, and the T/C (dose: 100.0 mg/kg/injection, schedule: Q01DX001 (ip), vehicle: saline with Tween-80) was 100 % of control, the T/C (dose: 200.0 mg/kg/injection, schedule: Q01DX001 (ip), vehicle: saline with Tween-80) was 100 % of control and the T/C (dose: 400.0 mg/kg/injection, schedule: Q01DX001 (ip), vehicle: saline with Tween-80) was 90 % of control.
With `CCOC(=O)CC1(O)CSc2nc(N)cc(=O)n21` (stereo not given) the T/C [1] was 94 % of control, the T/C [2] was 99 % of control and the T/C [3] was 91 % of control.
In the case of `O=C(Oc1ccccc1[N+](=O)[O-])C1CCCN1C(=O)OCc1ccccc1` (stereo not given), the T/C (dose: 25.0 mg/kg/injection, schedule: Q01DX005 (ip), vehicle: saline with Tween-80) is reported as 104 % of control, the T/C [6] is reported as 109 % of control and the T/C [7] is reported as 102 % of control. The T/C [8] was 99 % of control.
With `CC(C)OC1NC(=O)Oc2ccccc21` (stereo not given) the T/C [6] was 104 % of control, the T/C [7] was 110 % of control and the T/C [8] was 113 % of control.
With `CNC(=S)N/N=C(\c1ccccc1)c1ccccn1` the T/C [9] was 100 % of control, the T/C [10] was 100 % of control and 105 % of control and the T/C (dose: 100.0 mg/kg/injection, schedule: Q01DX009 (ip), vehicle: saline) was 102 % of control. The T/C [11] was 103 % of control and 90 % of control, the T/C (dose: 200.0 mg/kg/injection, schedule: Q01DX009 (ip), vehicle: saline) was 100 % of control and the T/C [12] was 96 % of control and 98 % of control. For the same molecule, the T/C (dose: 400.0 mg/kg/injection, schedule: Q01DX009 (ip), vehicle: saline) was 122 % of control and the T/C (dose: 400.0 mg/kg/injection, schedule: Q01DX009 (ip), vehicle: suspension in saline) was 102 % of control and 97 % of control.
With `CC1CCC(C(C)C)C(OC(=O)c2cccc[n+]2C)C1` (stereo not given) the T/C (dose: 3.75 mg/kg/injection, schedule: Q01DX005 (ip), vehicle: saline) was 107 % of control, the T/C (dose: 7.5 mg/kg/injection, schedule: Q01DX005 (ip), vehicle: saline) was 103 % of control and the T/C (dose: 15.0 mg/kg/injection, schedule: Q01DX005 (ip), vehicle: saline) was 110 % of control. The T/C (dose: 30.0 mg/kg/injection, schedule: Q01DX005 (ip), vehicle: saline) was 104 % of control and 119 % of control.
`CCN(CC)C1CC(O[C@H]2C[C@](O)(C(=O)CO)Cc3c(O)c4c(c(O)c32)C(=O)c2c(OC)cccc2C4=O)OC(C)C1O` (stereo not given in full) was tested, and the T/C (dose: 1.56 mg/kg/injection, schedule: Q01DX009 (ip), vehicle: water) was 153 % of control and the T/C (dose: 3.13 mg/kg/injection, schedule: Q01DX009 (ip), vehicle: water) was 165 % of control and 178 % of control.
`COc1c(C(C)C)cc2c(c1OC)C13CCCC(C)(C)C1C(OC3=O)C2NC(=O)C(C)N(C)C` (stereo not given) was tested, and the T/C (dose: 12.5 mg/kg/injection, schedule: Q01DX009 (ip), vehicle: saline) was 100 % of control, the T/C (dose: 25.0 mg/kg/injection, schedule: Q01DX009 (ip), vehicle: saline) was 98 % of control and the T/C [9] was 100 % of control.
`COc1ccc(C2OC(=N)C(=S)N2C)c(OC)c1` (stereo not given) was tested, and the T/C [13] was 102 % of control, the T/C [14] was 104 % of control and the T/C [15] was 101 % of control.
With `C=CC1(O)Cc2cc(C(C)C)c(OC)c(OC)c21` (stereo not given) the T/C [6] was 106 % of control, the T/C [7] was 119 % of control and the T/C [8] was 109 % of control.
With `NC(CSC1(c2cccc3ccccc23)c2ccccc2-c2ccccc21)C(=O)O` (stereo not given) the T/C [13] was 93 % of control, the T/C [14] was 90 % of control and the T/C [15] was 88 % of control.
With `Cc1c(Cl)c(O)cc2oc3cc(O)cc(O)c3c(=O)c12` the T/C (dose: 10.0 mg/kg/injection, schedule: Q04DX003 (ip), vehicle: Klucel (hydroxypropylcellulose) (HPC)) was 105 % of control, the T/C (dose: 20.0 mg/kg/injection, schedule: Q04DX003 (ip), vehicle: Klucel (hydroxypropylcellulose) (HPC)) was 102 % of control and the T/C (dose: 40.0 mg/kg/injection, schedule: Q04DX003 (ip), vehicle: Klucel (hydroxypropylcellulose) (HPC)) was 105 % of control.
For `O=C(C(=O)c1ccccn1)c1ccccn1`, the T/C (dose: 50.0 mg/kg/injection, schedule: Q04DX003 (ip), vehicle: saline with Tween-80) was 100 % of control, the T/C [16] was 105 % of control and the T/C [17] was 109 % of control. For the same molecule, the T/C [18] was 100 % of control.
In the case of `CNCCC(Oc1ccc(C(F)(F)F)cc1)c1ccccc1` (stereo not given), the T/C (dose: 25.0 mg/kg/injection, schedule: Q04DX002 (ip), vehicle: saline with Tween-80) is reported as 106 % of control, the T/C (dose: 50.0 mg/kg/injection, schedule: Q04DX002 (ip), vehicle: saline with Tween-80) is reported as 106 % of control and the T/C (dose: 100.0 mg/kg/injection, schedule: Q04DX002 (ip), vehicle: saline with Tween-80) is reported as 106 % of control.
For `Cc1cc(N2C(=O)CCSC2=S)c([N+](=O)[O-])cc1C`, the T/C [10] was 98 % of control, the T/C [11] was 91 % of control and the T/C [12] was 94 % of control.
`CN(c1ccccc1)C1CS(=O)(=O)OC2=C1CN(Cc1ccccc1)CC2` (stereo not given) was tested, and the T/C [16] was 99 % of control, the T/C [17] was 94 % of control and the T/C [18] was 90 % of control.
With `Cc1c(C(=O)NCCN(C)C)n(C)c(=O)c2ccccc12` the T/C [4] was 98 % of control, the T/C [5] was 93 % of control and the T/C (dose: 240.0 mg/kg/injection, schedule: Q01DX005 (ip), vehicle: saline) was 94 % of control.
`Fc1ccc2[nH]c3ncccc3c2c1` was tested, and the T/C [6] was 106 % of control, the T/C [7] was 105 % of control and the T/C [8] was 100 % of control.
`O=[N+]([O-])c1ccccc1-c1ccc2c(O)c(Cl)c(Cl)c(O)c2n1` was tested, and the T/C (dose: 100.0 mg/kg/injection, schedule: Q04DX003 (ip), vehicle: Klucel (hydroxypropylcellulose) (HPC)) was 104 % of control.
